For one test, the system named is N. gonorrhoeae FA1090. Description: Liquid broth MIC in Fastidious broth. The note with it: Neisseria gonorrhoeae, FA1090, read-out: Minimum Inhibitory Concentration (MIC), N. gonorrhoeae FA 1090.
Test [1] concerns the target T1, PBP3 from Pseudomonas aeruginosa (PAO1) (Pseudomonas aeruginosa, UniProt G3XD46).
T1 construct: made in house
Description: Bocillin-FL fluorescence polarization competition binding, P. aeruginosa PBP3. The note with it: Binding affinity to P. aeruginosa PBP3; fluorescence polarization competition binding assay using Bocillin-FL; read-out: P. aeruginosa PBP3 Potency. The method, boiled down:
(§1)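 Purified PBPs pre-incubated with inhibitor (E. coli PBP3 1.5 μM, 30 min; P. aeruginosa PBP3 0.75 μM, A. baumannii PBP1a 1 μM and PBP3 0.2 μM, 15 min), then Bocillin-FL 0.1 μM (0.05 μM for PBP1a) added; FP read up to 60 min. EC50 = concentration halving bound Bocillin-FL.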

Another test deals with N. gonorrhoeae WHO G. Description: Liquid broth MIC in Fastidious broth. The note with it: Neisseria gonorrhoeae, read-out: Minimum Inhibitory Concentration (MIC), N. gonorrhoeae WHO G.
The target in test [2] is T2, PBP3 from Escherichia coli (K-12) (Escherichia coli, UniProt P0AD68).
T2 construct: made in house
T2 sequence (P0AD68 1-577): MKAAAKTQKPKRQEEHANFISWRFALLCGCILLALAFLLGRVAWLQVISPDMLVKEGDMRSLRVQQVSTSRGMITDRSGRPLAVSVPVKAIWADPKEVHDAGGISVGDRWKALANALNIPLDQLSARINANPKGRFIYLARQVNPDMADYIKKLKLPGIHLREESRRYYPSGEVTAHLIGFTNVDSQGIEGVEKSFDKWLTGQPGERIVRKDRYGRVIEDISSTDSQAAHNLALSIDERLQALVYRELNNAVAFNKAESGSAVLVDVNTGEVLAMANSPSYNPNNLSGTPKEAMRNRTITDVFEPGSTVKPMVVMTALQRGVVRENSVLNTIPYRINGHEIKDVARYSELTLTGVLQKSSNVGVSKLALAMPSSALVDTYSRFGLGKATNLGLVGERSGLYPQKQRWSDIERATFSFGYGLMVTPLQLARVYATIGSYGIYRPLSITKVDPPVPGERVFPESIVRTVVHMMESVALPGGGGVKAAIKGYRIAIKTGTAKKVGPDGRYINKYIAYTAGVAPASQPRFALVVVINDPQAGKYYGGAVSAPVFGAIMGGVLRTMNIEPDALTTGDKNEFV
The experiment in a line: Bocillin-FL fluorescence polarization competition binding, E. coli PBP3. The method, boiled down:
as §1

The subject of test [3] is N. gonorrhoeae ATCC 49226. Description: Liquid broth MIC in Fastidious broth. The note with it: Neisseria gonorrhoeae, ATCC49226, read-out: Minimum Inhibitory Concentration (MIC), N. gonorrhoeae ATCC 49226.
In a further test the test system is A. baumannii CDC-0033. The experiment in a line: microbe, parasite or virus in culture. Type of test: cell-based. The note with it: Acinetobacter baumannii, CDC0033, read-out: MIC, A. baumannii CDC-0033.
For a further test, the system named is P. aeruginosa ATCC 35151. Description: microbe, parasite or virus in culture. Type of test: cell-based. The note with it: Pseudomonas aeruginosa, ATCC35151, read-out: Minimum inhibitory concentration, P. aeruginosa ATCC 35151.
In test [4] the target is T3, PBP3 from Acinetobacter baumannii (ATCC 19606) (Acinetobacter baumannii, UniProt A0ABX6CK25).
T3 sequence (A0ABX6CK25 64-610): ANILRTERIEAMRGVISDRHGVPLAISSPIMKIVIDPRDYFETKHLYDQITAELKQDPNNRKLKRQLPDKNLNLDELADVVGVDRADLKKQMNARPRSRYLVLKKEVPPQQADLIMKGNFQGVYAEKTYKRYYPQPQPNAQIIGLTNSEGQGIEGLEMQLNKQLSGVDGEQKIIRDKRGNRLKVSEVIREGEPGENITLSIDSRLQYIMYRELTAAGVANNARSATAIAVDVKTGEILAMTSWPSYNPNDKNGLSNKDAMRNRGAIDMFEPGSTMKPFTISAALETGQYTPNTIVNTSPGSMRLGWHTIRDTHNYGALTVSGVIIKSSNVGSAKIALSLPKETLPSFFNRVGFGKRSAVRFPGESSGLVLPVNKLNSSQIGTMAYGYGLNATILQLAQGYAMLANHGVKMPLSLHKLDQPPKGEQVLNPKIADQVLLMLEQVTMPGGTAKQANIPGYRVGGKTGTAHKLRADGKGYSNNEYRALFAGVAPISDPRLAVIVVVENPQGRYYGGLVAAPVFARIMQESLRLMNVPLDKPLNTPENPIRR
Description: Bocillin-FL fluorescence polarization competition binding, A. baumannii PBP3. The note with it: fluorescence polarization competition binding assay using Bocillin-FL; read-out: A. baumannii PBP3 Potency. The method, boiled down: as §1
(In general: In fluorescence polarisation assays a small probe gives low polarisation when free and higher when bound to something large.)

A further test concerns P. aeruginosa CDC-0095. The experiment in a line: microbe, parasite or virus in culture. It counts as cell-based. The note with it: Pseudomonas aeruginosa, CDC0095, read-out: Minimum inhibitory concentration, P. aeruginosa CDC-0095.
The test system of a further test is P. aeruginosa CDC-0090. The experiment in a line: microbe, parasite or virus in culture. Type of test: cell-based. The note with it: Pseudomonas aeruginosa, CDC0090, read-out: Minimum inhibitory concentration, P. aeruginosa CDC-0090.
The test system of test [5] is B. thailandensis ATCC 700388. The experiment in a line: microbe, parasite or virus in culture. It counts as cell-based. The note with it: Burkholderia thailandensis, ATCC700388, read-out: Minimum inhibitory concentration (MIC), B. thailandensis ATCC 700388.

The structures appear in SMILES notation. ≈ marks a conversion by molar mass, not a printed value.

T1 sequence (G3XD46 whole entry): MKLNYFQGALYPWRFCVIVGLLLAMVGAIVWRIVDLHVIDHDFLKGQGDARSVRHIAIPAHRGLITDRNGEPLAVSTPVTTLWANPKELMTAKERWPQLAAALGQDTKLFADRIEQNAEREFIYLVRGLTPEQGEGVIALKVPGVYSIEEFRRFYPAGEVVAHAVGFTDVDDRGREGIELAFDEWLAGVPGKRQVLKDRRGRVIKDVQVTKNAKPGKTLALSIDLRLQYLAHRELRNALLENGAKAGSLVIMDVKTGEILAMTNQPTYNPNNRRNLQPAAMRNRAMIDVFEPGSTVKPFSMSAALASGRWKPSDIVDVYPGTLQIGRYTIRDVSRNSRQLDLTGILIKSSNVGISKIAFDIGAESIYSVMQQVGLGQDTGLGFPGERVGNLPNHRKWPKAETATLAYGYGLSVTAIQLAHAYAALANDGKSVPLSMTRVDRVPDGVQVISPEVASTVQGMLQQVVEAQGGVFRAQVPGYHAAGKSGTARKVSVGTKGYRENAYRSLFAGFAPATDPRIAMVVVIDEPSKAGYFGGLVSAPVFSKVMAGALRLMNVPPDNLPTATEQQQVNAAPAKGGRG
Description for N. gonorrhoeae WHO G: Additional antibacterial testing of the series was performed in 8 reference strains of N. gonorrhoeae (ATCC 49226, FA1090, MS 11, WHO G, WHO L, WHO M, WHO K, WHO X, WHO Z, WHO Q, CDC-0197). ATCC 49226, FA1090, MS11, WHO G, WHO L, and WHO M produce wild type or wild-type like PBP2. WHO K, WHO X, WHO Z, WHO Q, and CDC-0197 produce mosaic PBP2. Liquid broth-based assays were used for antibacterial testing of PBP inhibitors in Neisseria gonorrhoeae. Briefly, cryo-preserved bacterial cultures of clinical strains were streaked for isolation on Chocolate Agar (72 g/L (2×) GC Agar Base (BD #228950) and 2% (2×) Hemoglobin was autoclaved at 121° C. for 20 minutes to sterilize. Once cooled to ˜50° C. the 2×GC Agar Base and 2× Hemoglobin solutions are combined and 1% IsoVitaleX Enrichment (BD #211876) was added to the solution). Strains were incubated at 36° C. and 5% CO2 to allow growth of colonies, 24 hours before inoculum preparation. 2-fold serial dilutions of test compounds were conducted in a 96 well plate with a final volume of 75 μL per well at 2-fold the final desired concentration in Fastidious broth (Remel #R07664). For preparation of assay inoculum, a direct suspension was prepared by aseptically swabbing 10-15 colonies from agar plates into culture tubes containing 2 mL of fresh sterile saline. After the dilution plates were set up, direct suspensions were then diluted in a cuvette containing sterile saline and the optical density was measured at 600 nm. Inocula were diluted such that 75 μL of this culture in Fastidious broth results in a starting bacterial concentration of 5×10^5 CFU/mL when added to the dilution plates. The plates were incubated for ˜24 hours at 36° C. and 5% CO2.

For `CS(=O)(=O)N1CCN(C(=O)N[C@H](C(=O)N[C@H]2Cc3cccc(C(=O)O)c3OB2O)c2ccc(P(=O)(O)O)cc2)C1=O` (single isomer, unassigned) [Example 5], the MIC (in the test with N. gonorrhoeae FA1090; in the test with N. gonorrhoeae WHO G; in test [3]) was below 1 µg/mL throughout. The IC50 in [1] lay within 10 to 50 µM. The EC50 (usually the concentration that produces a half-maximal response) in test [2] was 50 to 250 µM.

Regarding `NCCN1CCN(C(=O)NC(C(=O)N[C@H]2Cc3cccc(C(=O)O)c3OB2O)c2ccc(P(=O)(O)O)cc2)C(=O)C1=O` (stereo partly drawn) [Example 3, (3R)-3-(2-(4-(2-aminoethyl)-2,3-dioxopiperazine-1-carboxamido)-2-(4-phosphonophenyl)acetamido)-2-hydroxy-3,4-dihydro-2H-benzo[e][1,2]oxaborinine-8-carboxylic acid], the MIC (with N. gonorrhoeae FA1090; with N. gonorrhoeae WHO G; in test [3]) was below 1 µg/mL each time. Further, the IC50 in test [1] fell in the range of 10 to 50 µM. In addition, the EC50 in [2] lay within 10 to 50 µM.

Regarding `CCN1CCN(C(=O)NC(C(=O)N[C@H]2Cc3cccc(C(=O)O)c3OB2O)c2cc(P(=O)(O)O)ccc2F)C(=O)C1=O` (stereo partly drawn) [Example 2, (3R)-3-(2-(4-ethyl-2,3-dioxopiperazine-1-carboxamido)-2-(2-fluoro-5-phosphonophenyl)acetamido)-2-hydroxy-3,4-dihydro-2H-benzo[e][1,2]oxaborinine-8-carboxylic acid], the MIC in the test on N. gonorrhoeae FA1090 was below 1 µg/mL; with N. gonorrhoeae WHO G, 1 to 2 µg/mL (≈ 1.65 to 3.3 µM); in test [3], 4 to 8 µg/mL (≈ 6.6 to 13.2 µM). The IC50 in test [1] is below 10 µM. The compound further came in with an EC50 in test [2] below 10 µM.

As for `CCN1CCN(C(=O)NC(C(=O)N[C@H]2Cc3cccc(C(=O)O)c3OB2O)c2ccc(P(=O)(O)O)cc2F)C(=O)C1=O` (stereo partly drawn) [Example 1, (3R)-3-(2-(4-ethyl-2,3-dioxopiperazine-1-carboxamido)-2-(2-fluoro-4-phosphonophenyl)acetamido)-2-hydroxy-3,4-dihydro-2H-benzo[e][1,2]oxaborinine-8-carboxylic acid], the MIC (in the test on N. gonorrhoeae FA1090; in the test on N. gonorrhoeae WHO G; in [3]) was below 1 µg/mL each time. For the same compound, the IC50 in [1] was below 10 µM. Also, the EC50 in [2] is below 10 µM.

As to `O=C(NCCCN1CCN(C(=O)NC(C(=O)N[C@H]2Cc3ccc(F)c(C(=O)O)c3OB2O)c2cc(F)c(O)c(O)c2Cl)C(=O)C1=O)c1cc(O)cc(F)c1` (stereo partly drawn) [Example 410, (3R)-3-(2-(2-chloro-5-fluoro-3,4-dihydroxyphenyl)-2-(4-(3-(3-fluoro-5-hydroxybenzamido)propyl)-2,3-dioxopiperazine-1-carboxamido)acetamido)-7-fluoro-2-hydroxy-3,4-dihydro-2H-benzo[e][1,2]oxaborinine-8-carboxylic acid], the MIC is 2 to 4 µg/mL (≈ 2.57 to 5.14 µM) in the test with A. baumannii CDC-0033; below 1 µg/mL in the test with P. aeruginosa ATCC 35151; 2 to 4 µg/mL (≈ 2.57 to 5.14 µM) in the test with P. aeruginosa CDC-0095; below 1 µg/mL in the test with P. aeruginosa CDC-0090; 2 to 4 µg/mL (≈ 2.57 to 5.14 µM) in test [5]. Moreover, the IC50 in [4] and in [1] was below 10 µM throughout. Also, the EC50 in test [2] is below 10 µM.

Regarding `O=C(NCCCN1CCN(C(=O)N[C@H](C(=O)N[C@H]2Cc3ccc(F)c(C(=O)O)c3OB2O)c2cc(F)c(O)c(O)c2Cl)C(=O)C1=O)c1cc(F)c(O)cc1F` (single isomer, unassigned) [Example 472], the MIC is 8 to 16 µg/mL (≈ 10.1 to 20.1 µM) in the test with A. baumannii CDC-0033; below 1 µg/mL in the test with P. aeruginosa ATCC 35151; below 1 µg/mL in the test with P. aeruginosa CDC-0095; 2 to 4 µg/mL (≈ 2.51 to 5.03 µM) in the test with P. aeruginosa CDC-0090; 2 to 4 µg/mL (≈ 2.51 to 5.03 µM) in test [5]. The figures for the IC50 in test [4] and in test [1] were below 10 µM and 10 to 50 µM, respectively. In addition, in [2], the EC50 fell in the range of 50 to 250 µM.

Take `O=C(NCCCN1CCN(C(=O)NC(C(=O)N[C@H]2Cc3ccc(F)c(C(=O)O)c3OB2O)c2cc(F)c(O)c(O)c2Cl)C(=O)C1=O)c1cc(F)c(F)c(O)c1F` (stereo partly drawn) [Example 404, (3R)-3-(2-(2-chloro-5-fluoro-3,4-dihydroxyphenyl)-2-(2,3-dioxo-4-(3-(2,4,5-trifluoro-3-hydroxybenzamido)propyl)piperazine-1-carboxamido)acetamido)-7-fluoro-2-hydroxy-3,4-dihydro-2H-benzo[e][1,2]oxaborinine-8-carboxylic acid]: the MIC with A. baumannii CDC-0033 was 2 to 4 µg/mL (≈ 2.46 to 4.91 µM); with P. aeruginosa ATCC 35151, below 1 µg/mL; in the test on P. aeruginosa CDC-0095, 2 to 4 µg/mL (≈ 2.46 to 4.91 µM); in the test on P. aeruginosa CDC-0090, 2 to 4 µg/mL (≈ 2.46 to 4.91 µM); in test [5], 2 to 4 µg/mL (≈ 2.46 to 4.91 µM). The IC50 in [4] and in test [1] was below 10 µM each time. Further, in [2], the EC50 is below 10 µM.

In the case of `O=C(NCCCN1CCN(C(=O)NC(C(=O)N[C@H]2Cc3ccc(F)c(C(=O)O)c3OB2O)c2cc(F)c(O)c(O)c2Cl)C(=O)C1=O)c1c(F)cncc1F` (stereo partly drawn) [Example 402, (3R)-3-(2-(2-chloro-5-fluoro-3,4-dihydroxyphenyl)-2-(4-(3-(3,5-difluoroisonicotinamido)propyl)-2,3-dioxopiperazine-1-carboxamido)acetamido)-7-fluoro-2-hydroxy-3,4-dihydro-2H-benzo[e][1,2]oxaborinine-8-carboxylic acid], the MIC in the test with A. baumannii CDC-0033 was 2 to 4 µg/mL (≈ 2.56 to 5.12 µM); in the test with P. aeruginosa ATCC 35151, below 1 µg/mL; in the test on P. aeruginosa CDC-0095, below 1 µg/mL; in the test with P. aeruginosa CDC-0090 it was below 1 µg/mL; in [5], 2 to 4 µg/mL (≈ 2.56 to 5.12 µM). For the same compound, the IC50 in test [4] and in test [1] was below 10 µM in each case. This compound came in with an EC50 in test [2] below 10 µM.

With `O=C(O)c1c(F)ccc2c1OB(O)[C@@H](NC(=O)C(NC(=O)N1CCN(C3CCN(C(=O)Nc4cccc(O)c4)CC3)C(=O)C1=O)c1cc(F)c(O)c(O)c1Cl)C2` (stereo partly drawn) [Example 424, (3R)-3-(2-(2-chloro-5-fluoro-3,4-dihydroxyphenyl)-2-(4-(1-((3-hydroxyphenyl)carbamoyl)piperidin-4-yl)-2,3-dioxopiperazine-1-carboxamido)acetamido)-7-fluoro-2-hydroxy-3,4-dihydro-2H-benzo[e][1,2]oxaborinine-8-carboxylic acid], the MIC (with A. baumannii CDC-0033; in the test with P. aeruginosa ATCC 35151; in the test on P. aeruginosa CDC-0095; in the test with P. aeruginosa CDC-0090; in test [5]) was below 1 µg/mL in each case. For the same compound, the IC50 in test [4] and in [1] was below 10 µM throughout. Also, the concentration for a half-maximal effect (EC50) in test [2] is below 10 µM.

Consider `O=C(O)c1c(F)ccc2c1OB(O)[C@@H](NC(=O)C(NC(=O)N1CCN(C3CCN(S(=O)(=O)c4cccc(O)c4)CC3)C(=O)C1=O)c1cc(F)c(O)c(O)c1Cl)C2` (stereo partly drawn) [Example 428, (3R)-3-(2-(2-chloro-5-fluoro-3,4-dihydroxyphenyl)-2-(4-(1-((3-hydroxyphenyl)sulfonyl)piperidin-4-yl)-2,3-dioxopiperazine-1-carboxamido)acetamido)-7-fluoro-2-hydroxy-3,4-dihydro-2H-benzo[e][1,2]oxaborinine-8-carboxylic acid], for which the MIC in the test on A. baumannii CDC-0033 was 2 to 4 µg/mL (≈ 2.43 to 4.87 µM); in the test on P. aeruginosa ATCC 35151 it was below 1 µg/mL; in the test with P. aeruginosa CDC-0095, 2 to 4 µg/mL (≈ 2.43 to 4.87 µM); in the test with P. aeruginosa CDC-0090, below 1 µg/mL; in test [5], above 128 µg/mL. Further, the IC50 in test [4] and in test [1] was below 10 µM throughout. In test [2], the EC50 is below 10 µM.

As to `O=C(NCCCN1CCN(C(=O)NC(C(=O)N[C@H]2Cc3ccc(F)c(C(=O)O)c3OB2O)c2cc(F)c(O)c(O)c2Cl)C(=O)C1=O)c1ccc(F)c(O)c1F` (stereo partly drawn) [Example 411, (3R)-3-(2-(2-chloro-5-fluoro-3,4-dihydroxyphenyl)-2-(4-(3-(2,4-difluoro-3-hydroxybenzamido)propyl)-2,3-dioxopiperazine-1-carboxamido)acetamido)-7-fluoro-2-hydroxy-3,4-dihydro-2H-benzo[e][1,2]oxaborinine-8-carboxylic acid], the MIC is 8 to 16 µg/mL (≈ 10.1 to 20.1 µM) with A. baumannii CDC-0033; below 1 µg/mL with P. aeruginosa ATCC 35151; below 1 µg/mL with P. aeruginosa CDC-0095; below 1 µg/mL in the test on P. aeruginosa CDC-0090; 2 to 4 µg/mL (≈ 2.51 to 5.03 µM) in test [5]. In addition, the IC50 in [4] and in test [1] was below 10 µM in each case. Also, the EC50 in test [2] is below 10 µM.

Values taken from patent US20240270762A1, “PENICILLIN-BINDING PROTEIN INHIBITORS” (priority 2021, published 2024).
